Experimental data reported in patent publication US20260250318A1, “COMPOSITIONS AND METHODS FOR CROSSING THE BLOOD BRAIN BARRIER” (VOYAGER THERAPEUTICS, INC., priority 2022, published 2026).

Experiments:
[1] = system: brains, heart, liver, muscle, and DRG of the NHPs; assay: Maturation of TTM-001 and TTM-002 capsids, NGS enrichment in NHP tissues; assay type: in vivo; details: relative to AAV9 control
Outline: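 Variants carry mutations within and flanking the loop IV peptide insert: positions 450–466 were triplet-randomized, while positions 449–466 received low-frequency point mutations. The combined pool went into two NHPs, and each peptide was scored by NGS enrichment ratio against AAV9.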

brain = assay: Matured TTM-001 and TTM-002 variants, NGS enrichment in mouse brain; assay type: in vivo, mice; details: relative to AAV9 control
[2] = NGS fold-enrichment of RNA, NHP brain
[3] = NGS fold-enrichment, DRG of NHPs
[4] = NGS fold-enrichment, NHP liver DNA
[5] = NGS fold-enrichment, NHP liver RNA
[6] = NGS fold-enrichment, NHP muscle
[7] = NGS fold-enrichment, RNA, brain of NHPs
[8] = NGS fold-enrichment, heart of NHPs
[9] = NGS fold-enrichment, liver DNA of NHPs
[10] = NGS fold-enrichment, liver RNA of NHPs
[11] = NGS fold-enrichment, muscle of NHPs
[12] = NGS fold-enrichment, brain of mice
[13] = NGS fold-enrichment, mouse brain
[14] = NGS fold-enrichment of matured AAV capsid variants, NHP brain, RNA

Sequence	Fold Enrichment relative to AAV9, Brain (NHP) [1, 2] [fold]	Fold Enrichment relative to AAV9, DRG (NHP) [1, 3] [fold]	Fold Enrichment relative to AAV9, DRG (NHP) ([1]; NGS fold-enrichment, NHP DRG) [fold]	Fold Enrichment relative to AAV9, Heart (NHP) ([1]; NGS fold-enrichment, NHP heart) [fold]	Fold Enrichment relative to AAV9, Liver DNA (NHP) [1, 4] [fold]	Fold Enrichment relative to AAV9, Liver RNA (NHP) [1, 5] [fold]	Fold Enrichment relative to AAV9, Muscle (NHP) [1, 6] [fold]	Fold Enrichment relative to AAV9, Brain (NHP) [1, 7] [fold]	Fold Enrichment relative to AAV9, Heart (NHP) [1, 8] [fold]	Fold Enrichment relative to AAV9, Liver DNA (NHP) [1, 9] [fold]	Fold Enrichment relative to AAV9, Liver RNA (NHP) [1, 10] [fold]	Fold Enrichment relative to AAV9, Muscle (NHP) [1, 11] [fold]	Fold Enrichment relative to AAV9, Brain (Mouse) (brain; [12]) [fold]	Fold Enrichment relative to AAV9, Brain (Mouse) (brain; [13]) [fold]	other results
KTFNGSGSPHSKAQGQQT	99.253	0.000	0.000	0.208	0.099	0.128	0.000	99.253	0.208	0.099	0.128	0.000	81.459	81.459	
KTFNRSGSPHSKAQNQQI	86.359		0.000	113.67	0.092	0.000	0.000							25.568	
KTFPGSGSPHSKVQNQQT	199.720	0.000	0.000	0.000	0.967	0.000	0.000	199.720	0.000	0.967	0.000	0.000	97.703	97.703	
KTFSGSGSPHSKAQNLQT		0.000						70.035	0.327	0.228	0.000	0.303	70.917		
KTGNGSGSPHSKAQIQQT															Fold Enrichment relative to AAV9, Brain (NHP) [1, 14]: 52.809 fold; Fold Enrichment relative to AAV9, DRG (NHP) ([1]; NHP DRG): 0.000 fold; Fold Enrichment relative to AAV9, Heart (NHP) ([1]; NHP heart): 0.000 fold; Fold Enrichment relative to AAV9, Liver DNA (NHP) ([1]; NHP liver, DNA): 0.012 fold; Fold Enrichment relative to AAV9, Liver RNA (NHP) ([1]; NHP liver, RNA): 0.000 fold; Fold Enrichment relative to AAV9, Muscle (NHP) ([1]; NHP muscle): 0.000 fold; Fold Enrichment relative to AAV9, Brain (Mouse) (brain; mouse brain): 98.291 fold
KTIDGGGSPHSKAQNKQT	85.019	0.000	0.000	0.000	0.477	0.000	0.000	85.019	0.000	0.477	0.000	0.000	55.517	55.517	
KTIDGHDSPHKSGQNQHA	91.058		0.000	0.082	0.000	0.000	0.000							10.781	
KTIDGHDSPHKSGRNQQI	80.240		0.000	0.037	0.144	0.040	0.000							10.363	
KTIDGSGSPHSKALNKQT															Fold Enrichment relative to AAV9, Brain (NHP) [1, 14]: 58.992 fold; Fold Enrichment relative to AAV9, DRG (NHP) ([1]; NHP DRG): 0.000 fold; Fold Enrichment relative to AAV9, Heart (NHP) ([1]; NHP heart): 0.267 fold; Fold Enrichment relative to AAV9, Liver DNA (NHP) ([1]; NHP liver, DNA): 0.056 fold; Fold Enrichment relative to AAV9, Liver RNA (NHP) ([1]; NHP liver, RNA): 0.000 fold; Fold Enrichment relative to AAV9, Muscle (NHP) ([1]; NHP muscle): 0.000 fold; Fold Enrichment relative to AAV9, Brain (Mouse) (brain; mouse brain): 74.626 fold
